Experimental findings from ChEMBL document CHEMBL1143045, “Tricyclic isoxazolines: identification of R226161 as a potential new antidepressant that combines potent serotonin reuptake inhibition and alpha2-adrenoceptor antagonism” (Bioorg Med Chem, 2007) are described below.

Assay [1] has as its target Sodium-dependent serotonin transporter (Homo sapiens, UniProt P31645). Nature of the assay: Displacement of [3H]paroxetine from human cloned 5HTT receptor transfected in CHO cells. It counts as cell-based. Background: Displacement assays read how much labelled ligand stays bound in the presence of the test substance.
Assay [2] addresses T1, Alpha-2C adrenergic receptor (Homo sapiens, UniProt P18825).
T1 sequence (P18825 whole entry): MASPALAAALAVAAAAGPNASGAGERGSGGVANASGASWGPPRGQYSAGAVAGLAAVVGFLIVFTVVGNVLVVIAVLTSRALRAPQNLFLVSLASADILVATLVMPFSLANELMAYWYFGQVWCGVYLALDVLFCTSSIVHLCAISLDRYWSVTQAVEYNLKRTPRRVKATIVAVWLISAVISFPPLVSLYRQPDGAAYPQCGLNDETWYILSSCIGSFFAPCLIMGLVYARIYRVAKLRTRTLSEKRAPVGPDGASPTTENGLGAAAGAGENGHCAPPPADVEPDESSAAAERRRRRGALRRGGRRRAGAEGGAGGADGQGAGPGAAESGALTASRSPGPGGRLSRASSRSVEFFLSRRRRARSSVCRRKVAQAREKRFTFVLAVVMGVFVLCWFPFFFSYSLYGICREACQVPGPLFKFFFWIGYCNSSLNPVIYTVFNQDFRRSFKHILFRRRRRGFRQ
Kind of assay: Displacement of [3H]rawolscine from human cloned adrenergic Alpha-2C receptor transfected in CHO cells. It counts as cell-based.

Assay [3] has as its target T2, Alpha-2B adrenergic receptor (Homo sapiens, UniProt P18089).
T2 sequence (P18089 whole entry): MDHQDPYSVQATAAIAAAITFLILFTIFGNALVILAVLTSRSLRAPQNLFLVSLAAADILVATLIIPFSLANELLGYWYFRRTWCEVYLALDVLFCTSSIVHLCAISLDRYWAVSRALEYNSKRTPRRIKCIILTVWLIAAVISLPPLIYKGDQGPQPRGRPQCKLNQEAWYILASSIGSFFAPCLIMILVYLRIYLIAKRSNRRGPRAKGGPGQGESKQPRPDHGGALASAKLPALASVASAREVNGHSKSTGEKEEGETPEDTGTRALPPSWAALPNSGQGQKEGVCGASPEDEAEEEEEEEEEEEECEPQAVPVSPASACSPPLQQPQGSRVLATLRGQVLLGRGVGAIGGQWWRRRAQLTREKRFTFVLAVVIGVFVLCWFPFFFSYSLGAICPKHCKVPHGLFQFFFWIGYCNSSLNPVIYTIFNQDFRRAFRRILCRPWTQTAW
Nature of the assay: Displacement of [3H]rawolscine from human cloned adrenergic alpha-2B receptor transfected in CHO cells. Format: cell-based.

Assay [4] addresses T3, Alpha-2A adrenergic receptor (Homo sapiens, UniProt P08913).
T3 sequence (P08913 whole entry): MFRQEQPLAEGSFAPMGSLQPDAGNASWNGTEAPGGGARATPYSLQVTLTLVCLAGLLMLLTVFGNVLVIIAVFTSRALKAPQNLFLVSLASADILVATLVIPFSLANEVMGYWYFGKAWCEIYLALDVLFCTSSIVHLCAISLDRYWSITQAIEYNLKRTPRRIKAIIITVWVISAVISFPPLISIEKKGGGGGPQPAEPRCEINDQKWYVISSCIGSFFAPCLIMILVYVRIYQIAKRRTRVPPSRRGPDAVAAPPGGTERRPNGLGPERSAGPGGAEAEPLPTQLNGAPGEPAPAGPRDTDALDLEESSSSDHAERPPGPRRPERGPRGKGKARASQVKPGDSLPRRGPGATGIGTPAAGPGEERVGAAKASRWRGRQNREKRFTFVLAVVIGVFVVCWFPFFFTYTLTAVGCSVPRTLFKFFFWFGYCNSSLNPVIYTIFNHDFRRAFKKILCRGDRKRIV
Kind of assay: Displacement of [3H]rawolscine from human cloned adrenergic alpha2A receptor transfected in CHO cells. Format: cell-based.

The target in assay [5] is T4, Adrenergic receptor alpha-2 (Rattus norvegicus) (UniProt P22086+P19328+P22909). Kind of assay: Reversal of medetomidine-induced loss of righting reflex in sc dosed Wistar rat after 1hr. It counts as functional, organism-based.
Assay [6] addresses Sodium-dependent serotonin transporter (Rattus norvegicus) (UniProt P31652). Nature of the assay: Antagonism of p-chloroamphetamine-induced excitation in po dosed Wistar rat after 1 hr. Format: functional, organism-based.
The target is the same in assay [7]. Nature of the assay: Antagonism of p-chloroamphetamine-induced 5HT depletion in sc dosed Wistar rat prefrontal cortex after 1 hr. It counts as functional, organism-based.
The target of assay [8] is T4, Adrenergic receptor alpha-2 (Rattus norvegicus). Kind of assay: Reversal of medetomidine-induced loss of righting reflex in po dosed Wistar rat after 1hr. Format: functional, organism-based.
In assay [9] the target is Sodium-dependent serotonin transporter (Rattus norvegicus) (UniProt P31652). Nature of the assay: Antagonism of p-chloroamphetamine-induced excitation in sc dosed Wistar rat after 1 hr. It counts as functional, organism-based.
Assay [10] has the same target. Nature of the assay: Antagonism of p-chloroamphetamine-induced 5HT depletion in po dosed Wistar rat prefrontal cortex after 1 hr. Format: functional, organism-based.

Each structure is given as a SMILES string.

Sodium-dependent serotonin transporter, sequence (P31645 whole entry): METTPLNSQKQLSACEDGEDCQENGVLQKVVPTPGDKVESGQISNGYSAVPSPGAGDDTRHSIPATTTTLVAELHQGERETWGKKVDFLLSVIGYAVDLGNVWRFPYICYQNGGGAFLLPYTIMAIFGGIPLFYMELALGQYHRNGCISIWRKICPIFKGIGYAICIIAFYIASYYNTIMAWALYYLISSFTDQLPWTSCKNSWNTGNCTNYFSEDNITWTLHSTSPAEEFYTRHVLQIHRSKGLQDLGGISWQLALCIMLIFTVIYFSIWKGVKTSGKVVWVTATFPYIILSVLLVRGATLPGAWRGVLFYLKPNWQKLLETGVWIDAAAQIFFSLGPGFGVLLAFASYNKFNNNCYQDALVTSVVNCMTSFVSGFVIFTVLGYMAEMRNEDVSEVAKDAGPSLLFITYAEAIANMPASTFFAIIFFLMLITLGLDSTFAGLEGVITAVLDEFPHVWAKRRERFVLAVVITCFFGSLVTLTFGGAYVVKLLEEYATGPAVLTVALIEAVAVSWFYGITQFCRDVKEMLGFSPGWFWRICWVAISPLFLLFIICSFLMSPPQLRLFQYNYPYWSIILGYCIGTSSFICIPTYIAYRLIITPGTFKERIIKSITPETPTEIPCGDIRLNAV
Sodium-dependent serotonin transporter (Rattus norvegicus), sequence (P31652 whole entry): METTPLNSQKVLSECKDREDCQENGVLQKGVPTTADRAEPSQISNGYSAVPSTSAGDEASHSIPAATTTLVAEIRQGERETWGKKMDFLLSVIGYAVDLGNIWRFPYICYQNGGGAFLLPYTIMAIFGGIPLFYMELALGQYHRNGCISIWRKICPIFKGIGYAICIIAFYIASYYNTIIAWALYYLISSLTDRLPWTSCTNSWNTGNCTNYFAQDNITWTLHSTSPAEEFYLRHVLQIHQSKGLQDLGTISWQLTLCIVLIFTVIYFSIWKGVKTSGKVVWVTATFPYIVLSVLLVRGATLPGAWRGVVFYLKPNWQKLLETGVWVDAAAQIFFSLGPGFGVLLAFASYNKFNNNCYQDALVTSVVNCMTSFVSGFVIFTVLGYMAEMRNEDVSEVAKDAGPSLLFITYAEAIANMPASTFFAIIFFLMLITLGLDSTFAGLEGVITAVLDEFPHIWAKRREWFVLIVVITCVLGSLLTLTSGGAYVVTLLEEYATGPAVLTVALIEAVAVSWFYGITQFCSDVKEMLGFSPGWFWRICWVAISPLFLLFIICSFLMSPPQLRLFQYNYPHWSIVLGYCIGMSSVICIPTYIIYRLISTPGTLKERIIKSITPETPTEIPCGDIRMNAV

In general, Ki refers to a dissociation constant, usually derived from enzyme kinetics or from competition with a known ligand. A lower Ki goes with a stronger hold on the target. For `COc1cc2c(cc1OC)C1=NOC(CN3CCN(C/C(C)=C/c4ccccc4)CC3)C1CN2` (single isomer, unassigned; (-)), the results for the Ki in assay [1], in assay [2] and in assay [3] were 24 nM, 8.3 nM and 26 nM, respectively.
With `COc1cc2c(cc1OC)C1=NOC(CN3CCN(C/C=C/c4ccc(F)cc4)CC3)C1CO2` (cis isomer), the Ki stood at 14 nM in assay [1], 117 nM in assay [4], 72 nM in assay [2] and 162 nM in assay [3].
Regarding `COc1cc2c(cc1OC)C1=NOC(CN3CCN(C/C=C/c4ccc(F)cc4)CC3)C1CO2` (racemic), the Ki in assay [1] amounted to 5.6 nM; in [4], 9 nM; in assay [2], 23 nM; in assay [3], 25 nM.
As to `COc1cc2c(cc1OC)C1=NOC(CN3CCN(C/C(C)=C/c4ccccc4)CC3)C1CN2` (single isomer, unassigned; (+)) [listing 1 of 2 here], the Ki in assay [1] was 79 nM; in [2] it was 0.93 nM; in assay [3], 4.5 nM.
In general, ED50 refers to the dose at which the effect has come halfway, by size or by number of responders. Turning to `COc1cc2c(cc1OC)C1=NO[C@@H](CN3CCN(C/C(C)=C/c4ccc(F)cc4)CC3)[C@@H]1CO2` (racemic), the ED50 in assay [5] was found to be 0.1 mg/kg.
In the case of `COc1cc2c(cc1OC)C1=NOC(CN3CCN(C/C(C)=C/c4ccccc4)CC3)C1CN2` (single isomer, unassigned; (+)) [listing 2 of 2 here], the ED50 is over 10 mg/kg in assay [6]; 0.08 mg/kg in [5]; 4.1 mg/kg in [7]; 0.63 mg/kg in assay [8]; over 10 mg/kg in [9].
Consider `COc1cc2c(cc1OC)C1=NOC(CN3CCN(C/C=C/c4ccc(F)cc4)CC3)C1CO2` (single isomer, unassigned; (+)) [listing 1 of 2 here], for which the inhibitory constant (Ki) in assay [1] turned out to be 2.1 nM; in assay [4] it was 54 nM; in [2], 4.5 nM; in [3] it was 14 nM.
With `COc1cc2c(cc1OC)C1=NOC(CN3CCN(C/C(C)=C/c4ccccc4)CC3)C1CN2` (racemic), the Ki in assay [1] worked out at 8.9 nM; in [2], 0.1 nM; in [3], 12 nM.
As for `COc1cc2c(cc1OC)C1=NOC(CN3CCN(C/C=C/c4ccc(F)cc4)CC3)C1CO2` (single isomer, unassigned; (+)) [listing 2 of 2 here], the ED50 was 0.32 mg/kg in [6]; 0.05 mg/kg in assay [10]; 3.1 mg/kg in [5]; 0.03 mg/kg in assay [7]; 3.5 mg/kg in assay [8]; 0.05 mg/kg in assay [9].
